The results in this text go back to patent US8822517B2, “Arylosulfonamides for the treatment of CNS diseases” (Adamed SP. Z O.O., priority 2010, dated 2014).

Experiment [1] has as its target serotoninergic 5-HT6 receptor (Homo sapiens, UniProt P50406). Nature of the experiment: Binding assay 5-HT6 (h), [3H]LSD, CHO cells. Set-up: expressed in transfected cells; host or cells: CHO cells. As to conditions: read-out: 5-HT6. An outline of the steps: (§1)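 Scintillation counting detects receptor-bound radioligand. Compound tested at 1×10^−6 M.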
Experiment [2] concerns the target serotoninergic 5-HT7 receptor (Homo sapiens, UniProt P34969). Nature of the experiment: Binding assay 5-HT7 (h), [3H]LSD, CHO cells. Set-up: expressed in transfected cells; host or cells: CHO cells. As to conditions: read-out: 5-HT7. An outline of the steps:
as §1

Another experiment concerns the target T1, adrenergic α2C receptor (Homo sapiens, UniProt P18825).
T1 sequence (P18825 1-462): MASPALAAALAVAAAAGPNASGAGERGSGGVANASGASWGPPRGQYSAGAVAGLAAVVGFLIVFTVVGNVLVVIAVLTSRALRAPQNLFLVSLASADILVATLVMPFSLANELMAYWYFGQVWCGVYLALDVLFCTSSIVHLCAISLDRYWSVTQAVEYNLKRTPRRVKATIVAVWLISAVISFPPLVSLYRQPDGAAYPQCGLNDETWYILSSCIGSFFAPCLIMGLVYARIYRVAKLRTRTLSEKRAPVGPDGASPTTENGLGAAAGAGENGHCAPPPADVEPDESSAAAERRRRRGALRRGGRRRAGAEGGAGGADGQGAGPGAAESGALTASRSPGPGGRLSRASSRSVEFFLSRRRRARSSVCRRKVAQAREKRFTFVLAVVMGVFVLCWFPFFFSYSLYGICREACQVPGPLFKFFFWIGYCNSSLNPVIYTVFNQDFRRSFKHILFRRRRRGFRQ
Nature of the experiment: Binding assay α2C (h), [3H]RX 821002, CHO cells. Set-up: expressed in transfected cells; host or cells: CHO cells. The settings on record: read-out: α2C [%]. In outline: as §1

The test system of another experiment is sigma σ receptor. The experiment can be described thus: Binding assay σ (non-selective), [3H]DTG, rat cerebral cortex. As to conditions: percent inhibition of control specific binding; compounds tested at 1×10^−6 M. An outline of the steps:
as §1

Experiment [3] has as its target histaminergic H1 receptor (Homo sapiens, UniProt P35367). The experiment can be described thus: Binding assay H1 (h), [3H]pyrilamine, HEK-293 cells. Set-up: expressed in transfected cells; host or cells: HEK-293 cells. As to conditions: read-out: H1 [%]. An outline of the steps:
as §1

The target of another experiment is T2, muscarinic M3 receptor (Homo sapiens, UniProt P20309).
T2 construct: expressed in transfected cells; host or cells: CHO cells
T2 sequence (P20309 whole entry): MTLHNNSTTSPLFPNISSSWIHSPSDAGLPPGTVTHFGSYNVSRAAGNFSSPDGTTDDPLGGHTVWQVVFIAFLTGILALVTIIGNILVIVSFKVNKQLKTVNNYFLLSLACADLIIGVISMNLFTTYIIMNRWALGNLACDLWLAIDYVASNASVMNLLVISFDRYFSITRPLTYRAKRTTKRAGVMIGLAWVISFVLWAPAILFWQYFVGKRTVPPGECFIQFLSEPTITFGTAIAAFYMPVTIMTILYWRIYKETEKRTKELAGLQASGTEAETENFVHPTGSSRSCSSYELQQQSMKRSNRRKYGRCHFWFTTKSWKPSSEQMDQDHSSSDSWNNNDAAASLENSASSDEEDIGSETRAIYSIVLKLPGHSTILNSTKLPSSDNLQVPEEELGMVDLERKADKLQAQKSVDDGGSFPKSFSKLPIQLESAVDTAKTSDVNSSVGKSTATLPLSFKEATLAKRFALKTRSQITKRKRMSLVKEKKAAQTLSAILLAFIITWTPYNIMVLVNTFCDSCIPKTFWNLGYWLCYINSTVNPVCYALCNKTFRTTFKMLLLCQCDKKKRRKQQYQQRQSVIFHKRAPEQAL
The experiment can be described thus: Binding assay M3 (h), [3H]4-DAMP, CHO cells. As to conditions: read-out: M3 [%]. An outline of the steps:
as §1

Another experiment concerns adrenergic α1 receptor. Nature of the experiment: Binding assay α1 (non-selective), [3H]prazosin, rat cerebral cortex. The settings on record: percent inhibition of control specific binding; compounds tested at 1×10^−6 M. An outline of the steps: as §1
In experiment [4] the target is T3, serotoninergic 5-HT1A receptor (Homo sapiens, UniProt P08908).
T3 sequence (P08908 1-422): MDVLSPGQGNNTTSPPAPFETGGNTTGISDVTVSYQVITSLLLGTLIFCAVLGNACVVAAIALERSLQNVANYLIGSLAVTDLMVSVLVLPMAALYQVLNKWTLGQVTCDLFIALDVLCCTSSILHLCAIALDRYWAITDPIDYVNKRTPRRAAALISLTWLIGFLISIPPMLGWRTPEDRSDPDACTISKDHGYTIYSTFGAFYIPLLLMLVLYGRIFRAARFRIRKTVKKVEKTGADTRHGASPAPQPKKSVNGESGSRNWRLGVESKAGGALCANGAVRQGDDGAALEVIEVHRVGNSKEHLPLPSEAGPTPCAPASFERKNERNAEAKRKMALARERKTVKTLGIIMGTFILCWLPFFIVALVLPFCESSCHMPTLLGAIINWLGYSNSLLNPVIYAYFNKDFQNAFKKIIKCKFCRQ
Nature of the experiment: Binding assay 5-HT1A (h), [3H]8-OH-DPAT, HEK-293 cells. Set-up: expressed in transfected cells; host or cells: HEK-293 cells. The settings on record: read-out: 5-HT1A. An outline of the steps: as §1

The target of the next experiment is dopaminergic D2 receptor (Homo sapiens, UniProt P14416). The experiment can be described thus: Binding assay D2S (h), [3H]methyl-spiperone, HEK-293 cells. Set-up: expressed in transfected cells; host or cells: HEK-293 cells. The settings on record: read-out: D2 [%]. An outline of the steps:
as §1

In a further experiment the target is dopaminergic D3 receptor (Homo sapiens, UniProt P35462). The experiment can be described thus: Binding assay D3 (h), [3H]methyl-spiperone, CHO cells. Set-up: expressed in transfected cells; host or cells: CHO cells. As to conditions: read-out: D3 [%]. In outline: as §1
Sequence of dopaminergic D3 receptor (P35462 whole entry): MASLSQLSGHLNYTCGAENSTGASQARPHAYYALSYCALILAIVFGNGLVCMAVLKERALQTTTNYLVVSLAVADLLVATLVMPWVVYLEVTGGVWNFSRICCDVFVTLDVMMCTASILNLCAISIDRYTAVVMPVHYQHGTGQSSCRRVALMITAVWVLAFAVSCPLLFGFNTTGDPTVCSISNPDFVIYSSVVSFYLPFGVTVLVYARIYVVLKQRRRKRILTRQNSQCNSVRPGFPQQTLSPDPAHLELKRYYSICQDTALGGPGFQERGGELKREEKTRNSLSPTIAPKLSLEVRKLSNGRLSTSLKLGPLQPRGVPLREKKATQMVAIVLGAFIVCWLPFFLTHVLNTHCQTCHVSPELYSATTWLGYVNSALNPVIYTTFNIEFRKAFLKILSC
Experiment [5] has as its target T4, serotonine transporter (SERT) receptor (Homo sapiens, UniProt P31645).
T4 construct: expressed in transfected cells; host or cells: CHO cells
The experiment can be described thus: Binding assay SERT (h), [3H]imipramine, CHO cells. As to conditions: read-out: SERT [%]. An outline of the steps:
as §1

The target in experiment [6] is serotoninergic 5-HT2A receptor (Homo sapiens, UniProt P28223). The experiment can be described thus: Binding assay 5-HT2A (h), [3H]ketanserin, HEK-293 cells. The settings on record: read-out: 5-HT2A. The arrangement: expressed in transfected cells; host or cells: HEK-293 cells. In outline:
as §1

Experiment [7] addresses T5, serotoninergic receptor 5-HT2C (Homo sapiens, UniProt P28335).
T5 construct: expressed in transfected cells; host or cells: HEK-293 cells
T5 sequence (P28335 33-458): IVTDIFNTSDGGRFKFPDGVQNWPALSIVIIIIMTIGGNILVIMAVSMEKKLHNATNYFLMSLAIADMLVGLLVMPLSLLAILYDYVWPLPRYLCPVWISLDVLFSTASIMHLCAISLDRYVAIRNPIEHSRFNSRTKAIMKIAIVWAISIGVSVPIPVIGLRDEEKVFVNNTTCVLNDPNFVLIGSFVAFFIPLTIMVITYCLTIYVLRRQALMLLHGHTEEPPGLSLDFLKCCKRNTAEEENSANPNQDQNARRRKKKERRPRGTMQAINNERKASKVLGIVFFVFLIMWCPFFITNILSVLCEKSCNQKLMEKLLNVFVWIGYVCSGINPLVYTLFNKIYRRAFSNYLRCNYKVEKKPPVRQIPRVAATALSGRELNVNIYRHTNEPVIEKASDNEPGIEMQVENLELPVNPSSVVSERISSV
Nature of the experiment: Binding assay 5-HT2C (h), [3H]mesulergine, HEK-293 cells. As to conditions: read-out: 5-HT2C [%]. In outline: as §1

Sequence of serotoninergic 5-HT7 receptor (P34969 whole entry): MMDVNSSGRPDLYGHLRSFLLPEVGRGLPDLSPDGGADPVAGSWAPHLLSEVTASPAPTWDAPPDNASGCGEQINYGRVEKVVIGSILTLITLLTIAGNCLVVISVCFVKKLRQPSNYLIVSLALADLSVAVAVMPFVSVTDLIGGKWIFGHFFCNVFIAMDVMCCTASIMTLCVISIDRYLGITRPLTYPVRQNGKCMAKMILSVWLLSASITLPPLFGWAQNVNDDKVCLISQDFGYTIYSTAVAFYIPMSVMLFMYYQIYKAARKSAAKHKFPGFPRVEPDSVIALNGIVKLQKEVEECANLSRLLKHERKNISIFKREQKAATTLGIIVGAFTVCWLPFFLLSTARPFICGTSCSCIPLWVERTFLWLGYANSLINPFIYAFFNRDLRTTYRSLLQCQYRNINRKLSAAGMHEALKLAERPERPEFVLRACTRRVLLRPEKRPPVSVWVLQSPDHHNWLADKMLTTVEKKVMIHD
Sequence of serotoninergic 5-HT2A receptor (P28223 whole entry): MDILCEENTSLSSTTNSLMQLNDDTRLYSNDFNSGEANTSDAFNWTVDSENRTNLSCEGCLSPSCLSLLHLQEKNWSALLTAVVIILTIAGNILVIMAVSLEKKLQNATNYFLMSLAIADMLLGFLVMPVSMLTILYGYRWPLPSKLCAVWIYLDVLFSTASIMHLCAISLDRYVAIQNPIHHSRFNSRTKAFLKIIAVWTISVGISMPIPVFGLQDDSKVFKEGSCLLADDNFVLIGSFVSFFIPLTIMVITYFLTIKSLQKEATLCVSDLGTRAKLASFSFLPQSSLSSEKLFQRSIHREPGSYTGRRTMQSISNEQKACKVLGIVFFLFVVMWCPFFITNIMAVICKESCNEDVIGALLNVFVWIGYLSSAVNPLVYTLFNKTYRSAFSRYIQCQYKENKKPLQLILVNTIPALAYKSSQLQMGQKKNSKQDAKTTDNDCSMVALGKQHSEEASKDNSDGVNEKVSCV
Sequence of dopaminergic D2 receptor (P14416 1-414 isoform P14416-2): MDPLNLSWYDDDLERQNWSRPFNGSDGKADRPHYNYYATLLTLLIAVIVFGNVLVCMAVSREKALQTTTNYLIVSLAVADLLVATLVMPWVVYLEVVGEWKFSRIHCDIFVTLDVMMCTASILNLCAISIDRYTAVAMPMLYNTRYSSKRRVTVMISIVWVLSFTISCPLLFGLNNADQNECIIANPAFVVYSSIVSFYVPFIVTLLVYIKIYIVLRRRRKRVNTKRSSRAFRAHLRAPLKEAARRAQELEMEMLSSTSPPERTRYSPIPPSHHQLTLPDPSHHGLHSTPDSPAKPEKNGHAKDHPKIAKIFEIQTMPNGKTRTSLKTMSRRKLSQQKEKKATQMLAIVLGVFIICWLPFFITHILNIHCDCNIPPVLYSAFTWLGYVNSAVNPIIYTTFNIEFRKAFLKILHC
Sequence of serotoninergic 5-HT6 receptor (P50406 whole entry): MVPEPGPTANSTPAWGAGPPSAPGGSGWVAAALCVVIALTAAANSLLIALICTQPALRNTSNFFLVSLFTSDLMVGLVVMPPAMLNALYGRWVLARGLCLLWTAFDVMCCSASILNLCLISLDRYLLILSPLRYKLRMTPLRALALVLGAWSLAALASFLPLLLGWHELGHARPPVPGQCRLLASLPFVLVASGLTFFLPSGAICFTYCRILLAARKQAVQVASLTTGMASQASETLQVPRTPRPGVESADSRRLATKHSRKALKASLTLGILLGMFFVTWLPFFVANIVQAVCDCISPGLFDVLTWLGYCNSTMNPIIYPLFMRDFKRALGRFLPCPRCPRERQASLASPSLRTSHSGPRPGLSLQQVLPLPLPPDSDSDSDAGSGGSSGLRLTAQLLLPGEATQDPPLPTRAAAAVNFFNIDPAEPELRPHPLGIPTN
Sequence of histaminergic H1 receptor (P35367 whole entry): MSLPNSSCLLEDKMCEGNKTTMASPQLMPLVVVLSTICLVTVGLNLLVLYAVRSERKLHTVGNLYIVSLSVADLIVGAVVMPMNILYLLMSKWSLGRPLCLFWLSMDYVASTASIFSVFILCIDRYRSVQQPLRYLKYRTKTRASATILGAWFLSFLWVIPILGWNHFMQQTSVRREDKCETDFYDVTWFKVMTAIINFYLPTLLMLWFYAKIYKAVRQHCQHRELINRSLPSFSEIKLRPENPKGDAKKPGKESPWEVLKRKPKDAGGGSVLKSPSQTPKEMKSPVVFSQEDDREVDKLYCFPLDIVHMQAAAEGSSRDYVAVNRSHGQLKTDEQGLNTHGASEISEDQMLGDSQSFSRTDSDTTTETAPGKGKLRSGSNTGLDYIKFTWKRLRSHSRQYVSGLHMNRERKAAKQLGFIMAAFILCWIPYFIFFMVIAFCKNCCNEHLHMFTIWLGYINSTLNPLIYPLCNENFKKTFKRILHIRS
T4 sequence (P31645 whole entry): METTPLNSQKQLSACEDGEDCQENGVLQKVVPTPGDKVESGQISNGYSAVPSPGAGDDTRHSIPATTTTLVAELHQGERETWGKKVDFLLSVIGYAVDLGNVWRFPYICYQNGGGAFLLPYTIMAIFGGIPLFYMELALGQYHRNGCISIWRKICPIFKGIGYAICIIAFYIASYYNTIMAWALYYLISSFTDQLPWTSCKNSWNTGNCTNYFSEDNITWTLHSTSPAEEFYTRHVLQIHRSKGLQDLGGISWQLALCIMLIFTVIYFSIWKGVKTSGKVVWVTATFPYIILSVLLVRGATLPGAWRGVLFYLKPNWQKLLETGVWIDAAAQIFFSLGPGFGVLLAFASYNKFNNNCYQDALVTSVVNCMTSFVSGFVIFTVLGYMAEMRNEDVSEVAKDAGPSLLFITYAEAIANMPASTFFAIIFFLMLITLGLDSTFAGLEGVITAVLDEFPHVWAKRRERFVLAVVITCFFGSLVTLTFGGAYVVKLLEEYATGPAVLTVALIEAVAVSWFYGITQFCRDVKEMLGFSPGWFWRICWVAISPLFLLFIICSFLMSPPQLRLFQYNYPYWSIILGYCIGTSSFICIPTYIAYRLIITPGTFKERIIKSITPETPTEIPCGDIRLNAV

In the case of `O=S(=O)(NCCCCN1CCC(c2noc3cc(F)ccc23)CC1)c1ccc2c(c1)OCCO2` [Compound 321, N-[4-[4-(6-Fluoro-1,2-benzoxazol-3-yl)piperidin-1-yl]butyl]-2,3-dihydro-1,4-benzodioxine-6-sulphonamide], the inhibition at 1 µM was 89% in experiment [1]; 100% in experiment [2]; 100% on adrenergic α2C receptor; 95% in [3]; 14% at muscarinic M3 receptor; 78% in [4]. Besides, the inhibition at 1 µM on dopaminergic D2 receptor is 98%; at dopaminergic D3 receptor, 98%; in experiment [5], 61%; in experiment [6] it was 100%; in experiment [7], 65%. In addition, the “σ [%]” value in the experiment with sigma σ receptor is reported as 74%. Further, the “α1 [%]” value with adrenergic α1 receptor is 98%.
For `O=S(=O)(NCCCCN1CCC(c2noc3cc(F)ccc23)CC1)c1cccs1` [Compound 325, N-[4-[4-(6-Fluoro-1,2-benzoxazol-3-yl)piperidin-1-yl]butyl]thiophene-2-sulphonamide], the inhibition at 1 µM worked out at 72% in experiment [1]; 98% in experiment [2]; 93% at adrenergic α2C receptor; 83% in [3]; 26% at muscarinic M3 receptor; 62% in [4]. The inhibition at 1 µM at dopaminergic D2 receptor was 96%; at dopaminergic D3 receptor it was 95%; in [5] it was 20%; in [6], 102%; in [7], 49%. For the same compound, in the experiment on sigma σ receptor, the “σ [%]” value came out at 85%. For the same compound, the “α1 [%]” value in the experiment with adrenergic α1 receptor is recorded as 95%.
As for `O=S(=O)(NCCCN1CCC(c2noc3cc(F)ccc23)CC1)c1cnc2ccccn12` [Compound 356, N-[3-[4-(6-Fluoro-1,2-benzoxazol-3-yl)piperidin-1-yl]propyl]imidazo[1,2-a]pyridine-3-sulphonamide], the inhibition at 1 µM in experiment [1] was 78%; in experiment [2] it was 99%; at adrenergic α2C receptor, 96%; in [3], 80%; at muscarinic M3 receptor, 2%; in [4] it was 95%. Besides, the inhibition at 1 µM is 98% on dopaminergic D2 receptor; 96% at dopaminergic D3 receptor; 11% in [5]; 99% in experiment [6]; 83% in [7]. The “σ [%]” value with sigma σ receptor was found to be 70%. Besides, the “α1 [%]” value in the experiment with adrenergic α1 receptor was determined as 101%.
In the case of `O=S(=O)(NCCCN1CCC(c2noc3cc(F)ccc23)CC1)c1cc2cccnc2[nH]1` [Compound 357, N-[3-[4-(6-Fluoro-1,2-benzoxazol-3-yl)piperidin-1-yl]propyl]-1H-pyrrolo[2,3-b]pyridine-2-sulphonamide], the inhibition at 1 µM in experiment [1] was 94%; in experiment [2], 99%; at adrenergic α2C receptor it was 94%; in experiment [3], 84%; at muscarinic M3 receptor it was 25%; in [4] it was 63%. The inhibition at 1 µM turned out to be 99% on dopaminergic D2 receptor; 94% at dopaminergic D3 receptor; 41% in experiment [5]; 101% in [6]; 83% in [7]. For the same compound, the “σ [%]” value in the experiment on sigma σ receptor is 64%. Further, the “α1 [%]” value in the experiment with adrenergic α1 receptor came to 99%.
In the case of `O=c1[nH]c2cccc(N3CCN(CCCCNS(=O)(=O)c4cccc5ccccc45)CC3)c2[nH]1` [Compound 418, N-[4-[4-(2-oxo-1,3-dihydrobenzimidazol-4-yl)piperazin-1-yl]butyl]naphthalene-1-sulphonamide], the inhibition at 1 µM in [1] is 5%; in [2], 89%; at adrenergic α2C receptor, 94%; in experiment [3], 55%; at muscarinic M3 receptor it was 4%; in experiment [4], 98%. In addition, the inhibition at 1 µM was 97% at dopaminergic D2 receptor; 99% at dopaminergic D3 receptor; 5% in experiment [5]; 36% in experiment [6]; 19% in experiment [7]. The “σ [%]” value with sigma σ receptor is recorded as 6%. The “α1 [%]” value with adrenergic α1 receptor was 98%.
For `O=c1[nH]c2cccc(N3CCN(CCCCNS(=O)(=O)c4ccc5ccccc5c4)CC3)c2[nH]1` [Compound 419, N-[4-[4-(2-oxo-1,3-dihydrobenzimidazol-4-yl)piperazin-1-yl]butyl]naphthalene-2-sulphonamide], the inhibition at 1 µM in experiment [1] is 12%; in [2] it was 86%; at adrenergic α2C receptor, 93%; in experiment [3] it was 12%; at muscarinic M3 receptor it was -8%; in experiment [4] it was 98%. Besides, the inhibition at 1 µM is 93% on dopaminergic D2 receptor; 97% at dopaminergic D3 receptor; -21% in [5]; 52% in [6]; 7% in experiment [7]. In addition, the “σ [%]” value in the experiment with sigma σ receptor is −14%. Further, in the experiment with adrenergic α1 receptor, the “α1 [%]” value was 86%.
With `O=S(=O)(NCCN1CC=C(c2c[nH]c3ccc(F)cc23)CC1)c1cccc(F)c1` [Compound 439, 3-Fluoro-N-[2-[4-(5-fluoro-1H-indol-3-yl)-3,6-dihydro-2H-pyridin-1-yl]ethyl]benzenesulphonamide], the inhibition at 1 µM was 92% in [1]; 78% in experiment [2]; 68% on adrenergic α2C receptor; 18% in experiment [3]; 16% on muscarinic M3 receptor; 99% in experiment [4]. Also, the inhibition at 1 µM at dopaminergic D2 receptor stood at 97%; on dopaminergic D3 receptor, 95%; in [5], 93%; in [6], 83%; in [7], 41%. Besides, the “σ [%]” value in the experiment with sigma σ receptor amounted to 80%. In addition, in the experiment with adrenergic α1 receptor, the “α1 [%]” value was 27%.
